This passage reports IC50 results from patent EP4389746A2, “P2X3 RECEPTOR ANTAGONISTS” (Recordati Industria Chimica E Farmaceutica SPA, priority 2022, dated 2024).

Usually IC50 stands for the midpoint of a concentration-inhibition curve.

The target of the assay is T1, human P2X3 receptor (Homo sapiens, UniProt P56373).
T1 construct: expressed in transfected cells; host or cells: CHO-K1
T1 sequence (P56373 1-397): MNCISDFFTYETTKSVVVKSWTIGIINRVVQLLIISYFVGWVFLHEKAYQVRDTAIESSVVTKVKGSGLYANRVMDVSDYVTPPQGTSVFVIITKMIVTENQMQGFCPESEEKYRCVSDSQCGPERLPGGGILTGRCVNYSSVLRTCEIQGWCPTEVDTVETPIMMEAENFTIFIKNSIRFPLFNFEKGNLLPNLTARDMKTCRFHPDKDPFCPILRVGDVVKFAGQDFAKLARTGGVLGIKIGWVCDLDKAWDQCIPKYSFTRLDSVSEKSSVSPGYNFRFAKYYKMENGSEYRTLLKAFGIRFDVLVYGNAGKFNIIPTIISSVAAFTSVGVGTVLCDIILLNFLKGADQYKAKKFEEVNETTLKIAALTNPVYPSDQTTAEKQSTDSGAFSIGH
The assay is described as follows: Calcium luminescence measurement: human P2X3 receptor activity inhibition (CHO-K1 cells, photoprotein readout, FLEXSTATION). It counts as cell-based. Conditions: CHO-K1 cells co-expressing human P2X3 and Ca2+ sensitive photoprotein; agonist α,β-Met-ATP; read-out: h-P2X3 IC50. The procedure:
Determination of human P2X3 receptor activity inhibition
The assay for the human purinergic P2RX3 receptor has been adapted to the internal screening instrumentation using the FLEXSTATION as reader and a photoprotein as luminescent readout. The assay consists of CHO-K1 cells recombinantly co-expressing the human P2rx3 receptor and a Ca^2+ sensitive photoprotein. Cells are maintained in DMEM F-12 (1:1) mixture (LONZA cat. n° BE04-687F/U1) supplemented with 9 mL of 100 mM Sodium Pyruvate (LONZA cat. n° BE13-115E), 29 mL of 7.5% Sodium Bicarbonate (LONZA cat. n° BE17-613E), 5.5 mL of 1 M Hepes (LONZA cat. n° BE17-737E), 5 mL of 100X Penicillin/Streptomycin mixture (LONZA cat. n° DE17-602E) and 50 mL of Fetal Bovine Serum (Sigma cat. n° F7524), 1 mg/mL G418 disulfate salt (Sigma cat. n° G8168) and 5 µg/ml Puromycin dihydrochloride (Sigma cat. n° P9620). Standard propagation conditions consist of seeding in a P75 flask twice a week, recovering about 20×10^6 cells, corresponding to about 80% confluency. Cells were seeded into black-walled clear bottom 96 well plates at a density of 40000 cells/well in a complete medium. After 24 h the culture medium was replaced with 200 µL/well of coelenterazine in Tyrode's buffer (Standard Tyrode's buffer: in house solution, 130 mM NaCl, 5 mM KCl, 2 mM CaCl2, 5 mM NaHCO3, 1 mM MgCl2, 20 mM HEPES, pH 7.4). Coelenterazine was purchased from BIOSYNTH (cat. n° C-7001). 10 mM stock solution was prepared in DMSO and glutathione and stored at -20° C. The plates were incubated for 4 hours at 37°C, and injected with 10 µL/well of test compounds at 25X concentration in Tyrode's buffer. After 4 minutes a second injection of 50 µL/well of 5X α,β-Met-ATP in Tyrode's buffer (α,β-Met-ATP: from Tocris (cat. n° 3209), was dissolved at 100 mM in water and stored in aliquots at -20°C) was performed and the signal of the emitted luminescence was recorded by FLEXSTATION III (Molecular Devices). […]
The inhibition curves of the tested compounds at cloned P2X3 receptor were determined by nonlinear regression analysis using software Prism 5.0 (Graphpad, San Diego, CA). The IC50 values and pseudo-Hill slope coefficients were estimated by the program.

In the case of “3-tert-Butyl-6-[(4-chlorophenyl)methyl] -8-[4-(hydroxymethyl)piperidin-1-yl]pyrido[2,3-e][1,2,4]triazolo[4,3-c]pyrimidin-5(6H)-one [Example 41]”, the IC50 came out at 9.5 nM. With `CC(C)[C@H]1CN2C(=O)N(Cc3ccc(Cl)cc3)c3cc(N4CCOCC4)cnc3C2=N1` (single isomer, unassigned) [Example 10], the IC50 amounted to 1080 nM.

Regarding `CC(C)[C@@H]1CN2C(=O)N(Cc3ccc(Cl)cc3)c3cc(N4CCOCC4)cnc3C2=N1` (single isomer, unassigned) [Example 11], the IC50 came out at 113 nM.

For the compound `CC(C)C1C(=O)N=C2c3ncc(N4CCOCC4)cc3N(Cc3ccc(Cl)cc3)C(=O)N21` (single isomer, unassigned) [Example 23, (R or S)-6-[(4-Chlorophenyl)methyl]-8-(morpholin-4-yl)-3-(propan-2-yl)imidazo[1,2-c]pyrido[2,3-e]pyrimidine-2,5(3H,6H)-dione], the IC50 came out at 64.7 nM. The figure for `CC(C)C1C(=O)N=C2c3ncc(N4CCOCC4)cc3N(Cc3ccc(Cl)cc3)C(=O)N21` (single isomer, unassigned) [Example 24, (S or R)-6-[(4-Chlorophenyl)methyl]-8-(morpholin-4-yl)-3-(propan-2-yl)imidazo[1,2-c]pyrido[2,3-e]pyrimidine-2,5(3H,6H)-dione] is 56.2 nM; for `CC(C)C1CN=C2c3ncc(N4CCOCC4)cc3N(Cc3ccc(Cl)cc3)C(=O)N21` (stereo not drawn) [Example 1, 6-(4-Chlorobenzyl)-8-(morpholin-4-yl)-3-(propan-2-yl)-2,6-dihydroimidazo[1,2-c]pyrido[2,3-e]pyrimidin-5(3H)-one] it is 703 nM. The figure for `CC1(C)CN2C(=O)N(Cc3ccc(Cl)cc3)c3cc(N4CCOCC4)cnc3C2=N1` [Example 2, 6-(4-Chlorobenzyl)-2,2-dimethyl-8-(morpholin-4-yl)-2,6-dihydroimidazo[1,2-c]pyrido[2,3-e]pyrimidin-5(3H)-one] is 1010 nM; for `COc1cc(CN2C(=O)N3CC(C(C)(C)C)N=C3c3ncc(N4CCOCC4)cc32)cc(OC)c1` (stereo not drawn) [Example 3, 2-tert-Butyl-6-(3,5-dimethoxybenzyl)-8-(morpholin-4-yl)-2,6-dihydroimidazo[1,2-c]pyrido[2,3-e]pyrimidin-5(3H)-one] it is 27.3 nM. As for `CC(C)(C)C1CN2C(=O)N(Cc3ccc(Cl)cc3)c3cc(N4CCOCC4)cnc3C2=N1` (stereo not drawn) [Example 4, 2-tert-Butyl-6-(4-chlorobenzyl)-8-(morpholin-4-yl)-2,6-dihydroimidazo[1,2-c]pyrido[2,3-e]pyrimidin-5(3H)-one], the IC50 was found to be 181 nM. The figure for `CC(C)C1CN2C(=O)N(Cc3ccc(Cl)cc3)c3cc(N4CCC(N)CC4)cnc3C2=N1` (stereo not drawn) [Example 7, 8-(4-Aminopiperidin-1-yl)-6-[(4-chlorophenyl)methyl]-2-(propan-2-yl)-2,6-dihydroimidazo[1,2-c]pyrido[2,3-e]pyrimidin-5(3H)-one] is 642 nM; for `CC(C)C1CN2C(=O)N(Cc3ccc(Cl)cc3)c3cc(N4CCNCC4)cnc3C2=N1` (stereo not drawn) [Example 8, 6-[(4-Chlorophenyl)methyl]-8-(piperazin-1-yl)-2-(propan-2-yl)-2,6-dihydroimidazo[1,2-c]pyrido[2,3-e]pyrimidin-5(3H)-one] it is 1380 nM; for `CC(C)(CO)C1CN2C(=O)N(Cc3ccc(Cl)cc3)c3cc(N4CCOCC4)cnc3C2=N1` (stereo not drawn) [Example 12, 6-(4-Chlorobenzyl)-2-(1-hydroxy-2-methylpropan-2-yl)-8-(morpholin-4-yl)-2,6-dihydroimidazo[1,2-c]pyrido[2,3-e]pyrimidin-5(3H)-one] it is 54 nM. The figure for `CC(C)C1CN2C(=O)N(Cc3ccc(Cl)cn3)c3cc(N4CCOCC4)cnc3C2=N1` (stereo not drawn) [Example 13, 6-[(5-Chloropyridin-2-yl)methyl]-8-(morpholin-4-yl)-2-(propan-2-yl)-2,6-dihydroimidazo[1,2-c]pyrido[2,3-e]pyrimidin-5(3H)-one] is 865 nM. As for `COc1ccc(CN2C(=O)N3CC(C(C)C)N=C3c3ncc(N4CCOCC4)cc32)nc1` (stereo not drawn) [Example 14, 6-[(5-Methoxypyridin-2-yl)methyl]-8-(morpholin-4-yl)-2-(propan-2-yl)-2,6-dihydroimidazo[1,2-c]pyrido[2,3-e]pyrimidin-5(3H)-one], the IC50 is 822 nM. The figure for `CC(C)C1CN2C(=O)N(Cc3ccc(Cl)cc3)c3cc(NC(CO)CO)cnc3C2=N1` (stereo not drawn) [Example 15, 6-[(4-Chlorophenyl)methyl]-8-[(1,3-dihydroxypropan-2-yl)amino]-2-(propan-2-yl)-2,6-dihydroimidazo[1,2-c]pyrido[2,3-e]pyrimidin-5(3H)-one] is 11800 nM; for `CC(C)C1CN2C(=O)N(Cc3ccc(Cl)cc3)c3cc(NC4CCOCC4)cnc3C2=N1` (stereo not drawn) [Example 16, 6-[(4-Chlorophenyl)methyl]-8-[(oxan-4-yl)amino]-2-(propan-2-yl)-2,6-dihydroimidazo[1,2-c]pyrido[2,3-e]pyrimidin-5(3H)-one] it is 872 nM.

Consider `CC(C)C1C(=O)N=C2c3ncc(N4CCC(=O)CC4)cc3N(Cc3ccc(Cl)cc3)C(=O)N21` (stereo not drawn) [Example 25, 6-[(4-Chlorophenyl)methyl]-8-(4-oxopiperidin-1-yl)-3-(propan-2-yl)imidazo[1,2-c]pyrido[2,3-e]pyrimidine-2,5(3H,6H)-dione], for which the IC50 was found to be 123 nM.

Take `COc1ccc(Cn2c(=O)n3c(C(C)(C)OC)nnc3c3ncc(N4CCOCC4)cc32)cc1` [Example 33, 6-(4-Methoxybenzyl)-3-(2-methoxypropan-2-yl)-8-(morpholin-4-yl)pyrido[2,3-e][1,2,4]triazolo[4,3-c]pyrimidin-5(6H)-one]: the IC50 was determined as 301 nM. As for `COc1ccc(Cn2c(=O)n3c(C(C)(C)C)nnc3c3ncc(N4CCC(OC)CC4)cc32)cc1` [Example 37, 3-tert-Butyl-6-[(4-methoxyphenyl)methyl] -8-(4-methoxypiperidin-1-yl)pyrido[2,3-e][1,2,4]triazolo[4,3-c]pyrimidin-5(6H)-one], the figure is 339 nM; as for `CC(C)c1nnc2c3ncc(N4CCC(=O)CC4)cc3n(Cc3ccc(Cl)cc3)c(=O)n12` [Example 39, 6-[(4-Chlorophenyl)methyl]-8-(4-oxopiperidin-1-yl)-3-(propan-2-yl)pyrido[2,3-e][1,2,4]triazolo[4,3-c]pyrimidin-5(6H)-one], 1260 nM. In the case of `COc1ccc(Cn2c(=O)n3c(C(C)(C)C)nnc3c3ncc(N4CCC(N)CC4)cc32)cc1` [Example 40, 8-(4-Aminopiperidin-1-yl)-3-tert-butyl-6-[(4-methoxyphenyl)methyl]pyrido[2,3-e][1,2,4]triazolo[4,3-c]pyrimidin-5(6H)-one], the IC50 was 491 nM. The figure for `COc1cc(Cn2c(=O)n3c(C(C)(C)C)nnc3c3ncc(N4CCOCC4)cc32)ccc1F` [Example 42, 3-tert-Butyl-6-[(4-fluoro-3-methoxyphenyl)methyl] -8-(morpholin-4-yl)pyrido[2,3-e][1,2,4]triazolo[4,3-c]pyrimidin-5(6H)-one] is 1170 nM; for `COC(C)(C)c1nnc2c3nnc(N4CCN(C(=O)OC(C)(C)C)CC4)cc3n(Cc3ccc(Cl)cc3)c(=O)n12` [Example 45, tert-Butyl 4-{6-[(4-chlorophenyl)methyl]-3-(2-methoxypropan-2-yl)-5-oxo-5,6-dihydro[1,2,4]triazolo[4',3':1,6]pyrimido[5 ,4-c]pyridazin-8-yl}piperazine-1-carboxylate] it is 2550 nM.

`COC(C)(C)c1nnc2c3nnc(N4CCNCC4)cc3n(Cc3ccc(Cl)cc3)c(=O)n12` [Example 46, 6-[(4-Chlorophenyl)methyl]-3-(2-methoxypropan-2-yl)-8-(piperazin-1-yl)[1,2,4]triazolo[4',3': 1,6]pyrimido[5,4-c]pyridazin-5(6H)-one]: the IC50 amounted to 322 nM.
